Test results as given in ChEMBL document CHEMBL1142532, “Modular synthesis of non-peptidic bivalent NPY Y1 receptor antagonists” (Bioorg Med Chem, 2008).

Assays:
[1] = target: T1, Neuropeptide Y receptor type 1 (Homo sapiens) (UniProt P25929); experiment: Antagonist activity at NPY Y1 receptor in HEL cells assessed as inhibition of NPY-induced increase in intracellular calcium mobilization by Fura-2 assay; format: functional, cell-based
T1 sequence (whole entry): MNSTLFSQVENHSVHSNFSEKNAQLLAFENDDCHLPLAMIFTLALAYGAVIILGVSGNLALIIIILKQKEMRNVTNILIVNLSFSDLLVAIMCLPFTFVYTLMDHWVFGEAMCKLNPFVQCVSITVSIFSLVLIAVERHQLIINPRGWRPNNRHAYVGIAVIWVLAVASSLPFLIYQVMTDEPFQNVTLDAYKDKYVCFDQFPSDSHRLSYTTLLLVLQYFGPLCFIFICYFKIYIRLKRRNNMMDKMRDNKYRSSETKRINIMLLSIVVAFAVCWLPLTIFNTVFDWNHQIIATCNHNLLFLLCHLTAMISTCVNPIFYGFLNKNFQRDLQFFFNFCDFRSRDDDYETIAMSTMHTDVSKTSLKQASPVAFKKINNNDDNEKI

[2] = target: T2, Neuropeptide Y receptor type 1 (Homo sapiens, UniProt P25929); experiment: Displacement of NG-([2,3-3H]propionyl)-BIBP-3226 from NPY Y1 receptor in human SK-N-MC cells; format: cell-based
T2 sequence (P25929 whole entry): T1 sequence (whole entry)

Row | SMILES | Kb [1] [nM] | Ki [2] [nM]
1 | N/C(=N/C(=O)CCCn1cc(COCCOCCOCCOCCOCc2cn(CCCC(=O)/N=C(\N)NCCC[C@@H](NC(=O)C(c3ccccc3)c3ccccc3)C(=O)NCc3ccc(O)cc3)nn2)nn1)NCCC[C@@H](NC(=O)C(c1ccccc1)c1ccccc1)C(=O)NCc1ccc(O)cc1 | 1.8 | 58
2 | N/C(=N/C(=O)c1ccc(Cn2cc(CN(Cc3cn(Cc4ccc(C(=O)/N=C(/N)NCCC[C@@H](NC(=O)C(c5ccccc5)c5ccccc5)C(=O)NCc5ccc(O)cc5)cc4)nn3)Cc3cn(Cc4ccc(C(=O)/N=C(/N)NCCC[C@@H](NC(=O)C(c5ccccc5)c5ccccc5)C(=O)NCc5ccc(O)cc5)cc4)nn3)nn2)cc1)NCCC[C@@H](NC(=O)C(c1ccccc1)c1ccccc1)C(=O)NCc1ccc(O)cc1 |  | > 50000

Continued, values first:

Row | Kb [1] [nM] | Ki [2] [nM] | SMILES
3 | 7 | 6.1 | N/C(=N/C(=O)COCCOCCOCC(=O)/N=C(\N)NCCC[C@@H](NC(=O)C(c1ccccc1)c1ccccc1)C(=O)NCc1ccc(O)cc1)NCCC[C@@H](NC(=O)C(c1ccccc1)c1ccccc1)C(=O)NCc1ccc(O)cc1
4 | 0.6 | 43 | N/C(=N/C(=O)CCCn1cc(-c2ccc(-c3cn(CCCC(=O)/N=C(\N)NCCC[C@@H](NC(=O)C(c4ccccc4)c4ccccc4)C(=O)NCc4ccc(O)cc4)nn3)cc2)nn1)NCCC[C@@H](NC(=O)C(c1ccccc1)c1ccccc1)C(=O)NCc1ccc(O)cc1
5 | 0.9 | 49 | N/C(=N/C(=O)CCCn1cc(-c2ccccc2)nn1)NCCC[C@@H](NC(=O)C(c1ccccc1)c1ccccc1)C(=O)NCc1ccc(O)cc1
